From patent US11807635B2, “Nitrile derivative that acts as inhibitor of dipeptidyl peptidase 1 and use thereof” (HAISCO PHARMACEUTICALS PTE. LTD, priority 2020, dated 2023)

How the values were obtained:
[1] = Pharmacokinetic experiment in rats; format: in vivo; settings: rat, male SD rats, plasma; for Vd: read-out: Vdss
Experimental: 1.1 Test animals: Male SD rats, about 220 g, 6-8 weeks old, 6 rats/compound. The rats were purchased from CHENGDU DOSSY EXPERIMENTAL ANIMALS CO., LTD.
1.2 Test design: On the day of the experiment, 6 SD rats were randomly grouped according to their body weight. The rats were fasted but given water for 12-14 h one day before the administration, and were fed 4 h after the administration.
Before and after the administration, 0.1 ml of blood was taken from the orbit of the rats under isoflurane anesthesia and placed in an EDTAK2 centrifuge tube. The blood was centrifuged at 5000 rpm and 4° C. for 10 min to collect plasma. Blood sampling time point for the intravenous administration group: 0, 5, 15, 30 min, 1, 2, 4, 6, 8, and 24 h; and blood sampling time point for the intragastric administration group: 0, 5, 15, 30 min, 1, 2, 4, 6, 8, and 24 h. Before analysis and detection, all samples were stored at −80° C.

[2] = biological target: Recombinant human DPP1 enzyme (Homo sapiens (Human), UniProt P53634); assay: In vitro DPP1 enzyme activity assay; format: biochemical; settings: recombinant human DPP1 activated with cathepsin L, substrate Gly-Arg-AMC, fluorescence; read-out: DPP1 inhibitory activity IC50
Chain of Recombinant human DPP1 enzyme (P53634 25-134): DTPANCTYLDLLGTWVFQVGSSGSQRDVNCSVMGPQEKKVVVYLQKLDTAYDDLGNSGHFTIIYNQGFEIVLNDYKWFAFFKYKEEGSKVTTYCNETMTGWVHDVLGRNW
Chain of Recombinant human DPP1 enzyme (P53634 231-394): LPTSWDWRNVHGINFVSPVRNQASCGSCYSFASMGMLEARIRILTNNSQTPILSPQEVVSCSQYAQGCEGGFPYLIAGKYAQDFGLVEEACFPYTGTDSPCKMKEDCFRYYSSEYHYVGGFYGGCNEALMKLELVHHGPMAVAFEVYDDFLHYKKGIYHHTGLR
Chain of Recombinant human DPP1 enzyme (P53634 395-463): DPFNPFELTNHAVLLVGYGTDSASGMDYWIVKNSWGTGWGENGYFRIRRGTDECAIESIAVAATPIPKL
Experimental: Recombinant human DPP1 enzyme (R&D Systems, Cat. No. 1071-CY) at a final concentration of 100 μg/mL was mixed with recombinant human cathepsin L (R&D Systems, Cat. No. 952-CY) at a final concentration of 20 μg/mL were mixed and incubated at room temperature for 1 hour to activate the DPP1 enzyme. The activated DPP1 enzyme was diluted 100-fold, and 5 μL of compounds at different concentrations and 5 μL of the diluted DPP1 enzyme were added to a 384-well plate and incubated at room temperature for 30 minutes. […] IC50 values were calculated using the DosResp function of the Origin2019 software.

SMILES | IC50 [2] | also measured
Cn1c(=O)oc2ccc(-c3ccc(C[C@@H](C#N)NC(=O)[C@@H]4CNCCCO4)c(F)c3)cc21 [Compound 1, (S)—N—((S)-1-cyano-2-(2-fluoro-4-(3-methyl-2-oxo-2,3-dihydrobenzo[d]oxazol-5-yl)phenyl)ethyl)-1,4-oxazepane-2-carboxamide] |  | AUC(0-t) ([1]; iv, intravenously 1 mg/kg): 9500 ng·h/mL; clearance ([1]; iv, intravenously 1 mg/kg): 1.66 mL/min/kg; Vd ([1]; iv, intravenously 1 mg/kg): 0.753 L/kg; bioavailability ([1]; po, intragastrically 3 mg/kg): > 100%; AUC(0-t) ([1]; po, intragastrically 3 mg/kg): 31200 ng·h/mL
N#C[C@H](Cc1ccc(-c2ccc3c(c2)CCNC3=O)cc1F)NC(=O)[C@@H]1CNCCCO1 [Compound 10, (S)—N—((S)-1-cyano-2-(2-fluoro-4-(1-oxo-1,2,3,4-tetrahydroisoquinolin-6-yl)phenyl)ethyl)-1,4-oxazepane-2-carboxamide] | 0.0067 µM | 
N#C[C@H](Cc1ccc(C#CC2CCCC2)cc1F)NC(=O)[C@@H]1CNCCCO1 [Compound 11, (S)—N—((S)-1-cyano-2-(4-(cyclopentylethynyl)-2-fluorophenyl)ethyl)-1,4-oxazepane-2-carboxamide] | 0.239 µM | 
CN1CCN(Cc2ccc(-c3ccc(C[C@@H](C#N)NC(=O)[C@@H]4CNCCCO4)c(F)c3)cc2)CC1 [Compound 14, (S)—N—((S)-1-cyano-2-(3-fluoro-4′-((4-methylpiperazin-1-yl)methyl)-[1,1′-biphenyl]-4-yl)ethyl)-1,4-oxazepane-2-carboxamide] | 0.0129 µM | 
Cn1c(=O)oc2ccc(-c3cc(F)c(C[C@@H](C#N)NC(=O)[C@@H]4CNCCCO4)cn3)cc21 [Compound 35, (S)—N—((S)-1-cyano-2-(4-fluoro-6-(3-methyl-2-oxo-2,3-dihydrobenzo[d]oxazol-5-yl)pyridin-3-yl)ethyl)-1,4-oxazepane-2-carboxamide] | 0.004 µM | 
COC1CNCC(C(=O)N[C@H](C#N)Cc2ccc(-c3ccc(S(F)(F)(F)(F)F)cc3)cc2F)OC1 (stereo partly drawn) [Compound 43, N—((S)-1-cyano-2-(3-fluoro-4′-(pentafluoro-16-sulfanyl)-[1,1′-biphenyl]-4-yl)ethyl)-6-methoxy-1,4-oxazepane-2-carboxamide] | 0.0003 µM | 
Cn1c(=O)oc2ccc(-c3ccc(C[C@@H](C#N)NC(=O)[C@@H]4CNCCCO4)cc3)cc21 [INS1007, reference compound] |  | AUC(0-t) ([1]; iv, intravenously 1 mg/kg): 8400 ng·h/mL; clearance ([1]; iv, intravenously 1 mg/kg): 2.08 mL/min/kg; Vd ([1]; iv, intravenously 1 mg/kg): 0.738 L/kg; bioavailability ([1]; po, intragastrically 3 mg/kg): 88.1%; AUC(0-t) ([1]; po, intragastrically 3 mg/kg): 22200 ng·h/mL

Continued, in another order:

IC50 [2] | SMILES | also measured
0.021 µM | Cc1nc(-c2ccc(C[C@@H](C#N)NC(=O)[C@@H]3CNCCCO3)c(F)c2)sc1C#N [Compound 12, (S)—N—((S)-1-cyano-2-(4-(5-cyano-4-methylthiazol-2-yl)-2-fluorophenyl)ethyl)-1,4-oxazepane-2-carboxamide] | 
0.071 µM | N#C[C@H](Cc1ccc(-c2nc3ccccc3s2)cc1F)NC(=O)[C@@H]1CNCCCO1 [Compound 13, (S)—N—((S)-2-(4-(benzo[d]thiazol-2-yl)-2-fluorophenyl)-1-cyanoethyl)-1,4-oxazepane-2-carboxamide] | 
0.033 µM | Cc1csc(-c2ccc(C[C@@H](C#N)NC(=O)[C@@H]3CNCCCO3)c(F)c2)n1 [Compound 15, (S)—N—((S)-1-cyano-2-(2-fluoro-4-(4-methylthiazol-2-yl)phenyl)ethyl)-1,4-oxazepane-2-carboxamide] | 
0.0074 µM | N#Cc1ccc(-c2ccc(C[C@@H](C#N)NC(=O)[C@@H]3CNCCCO3)c(F)c2)cc1C1CC1 [Compound 17, (S)—N—((S)-1-cyano-2-(4′-cyano-3′-cyclopropyl-3-fluoro-[1,1′-biphenyl]-4-yl)ethyl)-1,4-oxazepane-2-carboxamide] | 
0.0049 µM | N#Cc1ccc(-c2ccc(C[C@@H](C#N)NC(=O)[C@@H]3CNCCCO3)c(F)c2)cc1C(F)(F)F [Compound 29, (S)—N—((S)-1-cyano-2-(4′-cyano-3-fluoro-3′-(trifluoromethyl)-[1,1′-biphenyl]-4-yl)ethyl)-1,4-oxazepane-2-carboxamide] | 
